Assay results from patent publication US20040171691A1, “Propofol with cysteine” (Transform Pharmaceuticals, Inc., priority 2002, published 2004).

Tested on: microorganisms
Assay: Antimicrobial effectiveness, overall conclusion over the four USP test organisms
Assay type: cell-based
Details: after adventitious, extrinsic contamination
Description: Tables 2 through 5 compare the antimicrobial effectiveness of the cysteinate HCl formulation with that of Diprivan® and generic propofol formulation, as well as unpreserved Intralipid®.

Q: `Cl.N[C@@H](CS)C(=O)O` [cysteine/cysteinate HCl, Cysteine HCl] was tested. Which “time for which significant growth of microorganisms is prevented” value did it give?
A: Its value is “at least 24 hours”.
